{"source": "patent US11607422B2", "about": "“Uttroside B and derivatives thereof as therapeutics for hepatocellular carcinoma” (Rajiv Gandhi Centre for Biotechnology, an Autonomous …, priority 2016, dated 2023)", "key": {"HeLa cells": {"system": "HeLa cells", "settings": "literature ref 12; read-out: IC50, cytotoxicity against HeLa (cervical cancer cells); cited from earlier work"}, "[1]": {"system": "autophagy related proteins in Hep3B cells", "test": "Western blot of autophagy related proteins in Hep3B cells", "assay_type": "cell-based", "settings": "time dependent", "protocol": "Western blot analysis. Approximately 0.5×10^6 cells were grown on 60 mm culture plates and exposed to drugs as indicated for the desired time. The cells were then scraped out, washed in ice cold 1× PBS and pelleted down at 13000 rpm for 2 min. The pelleted cells were suspended in 150 μL of ice-cold whole cell lysis buffer[(20 mMTris of pH 7.4, 250 mM NaCl, 2 mM EDTA, 0.1% Triton, 1 mM DTT (1,4-dithiothreitol), 0.5 mM PMSF, 4 mM sodium orthovanadate, aprotinin (5 mg m/L) and leupeptin (5 mg m/L)] and kept in ice for 30 min, with intermittent vortexing every 5 min. After incubation, the lysate was centrifuged at 13000 rpm for 10 min at 4° C. and the supernatant was collected. The total protein content in the lysate was estimated by Bradford's method, and was then denatured by boiling with 5× loading dye before separating the proteins by SDSpolyacrylamidegel electrophoresis (SDS-PAGE). […]"}, "LC3 in HepG2 cells": {"system": "LC3 in HepG2 cells", "test": "Autophagy flux (LC3I to LC3II conversion) with Bafilomycin", "assay_type": "cell-based, human", "settings": "Uttroside B 500 nM + Bafilomycin 10 nM, 24 h", "protocol": "Concentration dependent effect of BafilomycinAl on the endogenous conversion of LC3I to LC3II in HepG2 cells. Cells were treated with Bafilomycin Al at different concentration and the whole cell lysate was resolved on a 15% gel and immunoblotted against LC3 antibody. Uttroside B is an autophagy inducer in HepG2 cells as analysed by autophagy flux using Bafilomycin Al. […] The increase in LC3 II could not be considered as a fool proof of autophagic induction because a blockage in any step leading from autophagosome maturation to its fusion with lysosomes could cause its accumulation. So, the effect of Uttroside B in HepG2 cells were analyzed for autophagy flux, a more accurate read out of autophagy on co-treatment with Bafilomycin, an autophagy-lysosome inhibitor. Bafilomycin A, blocks autophagy by blocking the fusion of autophagosome with lysosome which cause the accumulation of autophagosome or LC3. First, the concentration of Bafilomycin Al required for saturating the blockage of autophagy-lysosome fusion was standardized. The efficacy of Bafilomycin Al, in terms of blocking autophagosome degradation in HepG2, was found peaked at 10 nM, beyond which no further accumulation of LC3 II was noted, which matched with the earlier reports.^32,37,38 […]"}, "PC-12": {"system": "PC-12", "settings": "literature ref 13; read-out: IC50, cytotoxicity against PC-12; cited from earlier work"}}}
{"smiles": "C[C@H](CC[C@@]1(O)O[C@H]2C[C@H]3[C@@H]4CC[C@H]5C[C@@H](O[C@@H]6O[C@H](CO)[C@H](O[C@@H]7O[C@H](CO)[C@@H](O)[C@H](O[C@@H]8OC[C@@H](O)[C@H](O)[C@H]8O)[C@H]7O[C@@H]7O[C@H](CO)[C@@H](O)[C@H](O)[C@H]7O)[C@H](O)[C@H]6O)CC[C@]5(C)[C@H]4CC[C@]3(C)[C@H]2[C@@H]1C)CO[C@@H]1O[C@H](CO)[C@@H](O)[C@H](O)[C@H]1O", "note": "[Uttroside B]", "values": [{"measurement": "IC50", "setting": "HeLa cells", "value": 15.4, "unit": "µM"}, {"measurement": "expression of autophagy related proteins, Hep3B", "setting": "[1]", "value": "induced Atg5, Atg7 and LC3 in a time dependent manner"}, {"measurement": "LC3II on co-treatment with Bafilomycin", "setting": "LC3 in HepG2 cells", "value": "surplus accumulation of LC3II"}, {"measurement": "IC50", "setting": "PC-12", "value": 1.2, "unit": "µM"}]}
